Assay results: patent publication EP2681209B1, “COMPOUNDS AND METHODS FOR THE TREATMENT OF PAIN AND OTHER DISORDERS” (Aquilus Pharmaceuticals, Inc, priority 2011, dated 2012)

Key:
FVB male mice = experiment: Spinal nerve ligation (SNL) mouse model of neuropathic pain, intraperitoneal administration, von Frey tactile allodynia test; type: in vivo; conditions: for 50% paw withdrawal threshold, Mean, Day 1 / 50% paw withdrawal threshold, Mean, Day 2 / 50% paw withdrawal threshold, Mean, Day 5 / 50% paw withdrawal threshold, Mean, Day 6 / 50% paw withdrawal threshold, Mean, Day 7: IP 100 µl/mouse (approx. 3.3mg/Kg) daily injections day 1-5; for 50% paw withdrawal threshold, Mean, Day 0 Postoperative Baseline: group baseline after SNL injury, before first IP injection, von Frey
Description: To measure the neuropathic pain inhibiting affects of the MMP inhibitors of the present invention, the spinal nerve ligation (SNL) mouse model was run on a select number of compounds. This model which began with the work of Bennet and coworkers (Bennet, G.J. et al. Pain, 33, (1988), 87-107) and was optimized by Kim and Chung (Kim, S.H.; Chung, J.M. Pain, 50, (1992), 355-363) entails first, under magnification, the removal of one-third of the transverse process and then identifying and then dissecting free the L5 spinal nerve from the adjacent L4 spinal nerve in the mouse. The L5 spinal nerve is then tightly ligated using 6.0 silk suture. The nerve injury leads to hyperalgesia which manifests itself by enhanced responses to mechanical, heat and/or cooling stimuli. In this case, mechanical hyperalgesia is tested via Von Frey monofilaments in which filaments of varying thicknesses and bending force are individually applied to the plantar surface of the foot of the mouse. The threshold force necessary for paw withdrawal decreases dramatically after the nerve surgery. Potent pain inhibitors will reverse this affect resulting in greater force needing to be applied to cause the rodent paw to withdrawal.
Tactile Allodynia Test. Mechanical allodynia was measured using the calibrated von Frey filaments (Semmes-Weinstein monofilaments; Stoelting, Wood Dale, IL, U.S.A.). The plantar surface of the left injured paw of each animal was tested as described by Chaplan et al. (Journal of Neuroscience Methods, 53, (1994), 55-63). The Fifty percent paw withdrawal threshold response was determined by sequentially increasing or decreasing the stimulus strength according to the "up-down method" of Dixon (Annual Review Pharmacology Toxicology, 20, (1980), 441-462). For mice, […] von Frey filaments were used, with approximately equal logarithmic incremental bending forces (von Frey number: 1.65, 2.36, 2.44, 2.83, 3.22, 3.61, 3.84, 4.08, and 4.17; equivalent to 0.005, 0.02, 0.03, 0.07, 0.17, 0.41, 0.69, 1.20, and 1.48g force, respectively).
Prior to testing, each animal was placed in a suspended clear plastic chamber with a wire mesh bottom and acclimated for 15 minutes. Testing was initiated with the 0.07 g (handle marking of 2.83) applied perpendicularly to the plantar surface of the affected hind paw; each filament was applied with enough pressure to cause a buckle effect. The absence of a paw lifting/withdrawal response after 6 s prompted the use of the next higher weight filament. Paw withdrawal, indicating a positive response, prompted the use of a weaker filament. After the initial positive response (i.e., paw withdrawal), the testing continued for four additional measurements, and was used to calculate the response threshold. Four consecutive positive responses received a score of 0.001 g, and five consecutive negative responses (i.e., no paw withdrawal) received a score of 1.5 g.
Analyses for Tactile Allodynia Testing. The 50% paw withdrawal threshold was calculated (PWT; Luo and Calcutt, J. Pharmacology Experimental Therapeutics, 303(3), (2002), 1199-1205; Chaplan et al. Journal of Neuroscience Methods, 53, (1994), 55-63) using the formula: 10(Xf + κδ)/10,000 [formula] where Xf is the final von Frey filament used (log units), κ is a value that analyzes the response pattern (taken from the table published by Chaplan et al., 1994), and δ is the mean difference between stimuli (log units).
Except for the mode of administration, number of mice/group and the number of injections and amount per injection of compound given, the rest of the study was done in the same manner (in regards to the surgeries and tactile allodynia testing and analysis) as Experiment 110. 3.2 mg of each of the MMP inhibitors #5 and #10 were dissolved in 320 microliters of DMSO. To the solution was then added 32 microliters of Tween 80, followed by 2850 microliters of phosphate buffered saline (PBS). This gave a final concentration of 10% DMSO, 1% Tween and 1mg/ml compound. […]

[1] = In-vitro microsomal stability in mouse microsomes; type: in vitro ADME; conditions: 1 µM compound, mouse microsomes 0.3 mg/mL, at T = 60 minutes; for %Mean Remaining Parent without NADPH (%): control omitting NADPH
Method: Human and mouse microsomal stability was determined for select compounds following the method of Houston (Houston, JB; Biochem. Pharmacol. 47, (1994),1469).
1 µM concentration of compound and seperate human and mouse microsomes (0.3 mg/mL, BD bioscience) were used in the in-vitro assay. To ensure proper energy supply for microsomal degradation of compound, an energy regenerating system comprised of 100 mM potassium phosphate, 2mM NADPH, 3mM MgCl2, pH = 7.4. and the microsomal protein is added to each sample and the resulting suspension is then incubated in duplicate for 60 min at 37° C. in a rotary shaker. A control is run for each test agent in duplicate omitting NADPH to detect NADPH-free degradation. At T=0 and T= 60 min., an aliquot is removed from each experimental and control reaction and then mixed with an equal volume of ice-cold Stop Solution (consisting of 0.3% acetic acid in acetonitrile containing haloperidol and diclofenac as internal standards). Stopped reactions are then incubated for at least ten minutes at -20 °C, and an additional volume of water is then be added. The samples are then centrifuged to remove precipitated protein, and the supernatants are then analyzed by LC-MS/MS to determine the percentage of compound remaining. The LC-MS/MS system used was an Agilent 6410 mass spectrometer coupled with an Agilent 1200 HPLC and a CTC PAL chilled autosampler, all controlled by MassHunter software (Agilent), or an ABI2000 mass spectrometer coupled with an Agilent 1100 HPLC and a CTC PAL chilled autosampler, all controlled by Analyst software (ABI). After separation on a C18 reverse phase HPLC column (Agilent, Waters, or equivalent) using an acetonitrile-water gradient system, peaks were analyzed by mass spectrometry (MS) using ESI ionization in MRM mode.

Cc1ccc(C#Cc2ccc(S(=O)(=O)N[C@H](Cc3c[nH]c4ccccc34)C(=O)O)s2)cc1 [Compound 5, (R)-3-(1H-Indol-3-yl)-2-(5-p-tolylethynyl-thiophene-2-sulfonylamino)-propionic acid]
50% paw withdrawal threshold, Mean, Day 1 (FVB male mice): 0.078 g | 50% paw withdrawal threshold, Mean, Day 2 (FVB male mice): 0.117 g | 50% paw withdrawal threshold, Mean, Day 5 (FVB male mice): 0.238 g | 50% paw withdrawal threshold, Mean, Day 6 (FVB male mice): 0.099 g | 50% paw withdrawal threshold, Mean, Day 7 (FVB male mice): 0.128 g | 50% paw withdrawal threshold, Mean, Day 0 Postoperative Baseline (FVB male mice): 0.046 g | %Mean Remaining Parent with NADPH (%) [1]: 83% | %Mean Remaining Parent without NADPH (%) [1]: 88%

[2H]C([2H])([2H])c1ccc(C#Cc2ccc(S(=O)(=O)N[C@H](Cc3c[nH]c4ccccc34)C(=O)O)s2)cc1 [Compound 10, (R)-3-(1H-Indol-3-yl)-2-[5-(4-trideuteromethyl-phenylethynyl)-thiophene-2-sulfonylamino]-propionic acid-(D3, 98%)]
50% paw withdrawal threshold, Mean, Day 1 (FVB male mice): 0.170 g | 50% paw withdrawal threshold, Mean, Day 2 (FVB male mice): 0.350 g | 50% paw withdrawal threshold, Mean, Day 5 (FVB male mice): 1.470 g | 50% paw withdrawal threshold, Mean, Day 6 (FVB male mice): 0.867 g | 50% paw withdrawal threshold, Mean, Day 7 (FVB male mice): 0.250 g | 50% paw withdrawal threshold, Mean, Day 0 Postoperative Baseline (FVB male mice): 0.096 g | reversal of mechanical alodynia (FVB male mice; i.p. administration, by day 5): complete reversal of mechanical alodynia by day 5 | %Mean Remaining Parent with NADPH (%) [1]: 85% | %Mean Remaining Parent without NADPH (%) [1]: 91%
